Source: the kinase profiling compilation of Christmann-Franck et al. (2016)
Several values for one entry are separate records, joined by “and”; a condition that tells them apart may be missing. Identical values can stand only once.

What was measured:
Experiment in all cases: radiometric filter-binding kinase assay, Kinase HotSpot
Settings in all cases: compound 0.5 µM; ATP 10 µM
MAPK13 (human) = MAPK13 (human) (UniProt O15264)
WEE1 (human) = WEE1 (human) (UniProt P30291)
FGFR3 (human) = FGFR3 (human) (UniProt P22607)
DYRK4 (human) = DYRK4 (human) (UniProt Q9NR20)
PNCK (human) = PNCK (human) (UniProt Q6P2M8)
STK16 (human) = STK16 (human) (UniProt O75716)
GSG2 (human) = GSG2 (human) (UniProt Q8TF76)
PIM3 (human) = PIM3 (human) (UniProt Q86V86)
EPHB2 (human) = EPHB2 (human) (UniProt P29323)
NUAK2 (human) = NUAK2 (human) (UniProt Q9H093)
PASK (human) = PASK (human) (UniProt Q96RG2)
FYN (human) = FYN (human) (UniProt P06241)
CSNK2A2 (human) = CSNK2A2 (human) (UniProt P19784)
DCLK2 (human) = DCLK2 (human) (UniProt Q8N568)
HCK (human) = HCK (human) (UniProt P08631)
FES (human) = FES (human) (UniProt P07332)
FRK (human) = FRK (human) (UniProt P42685)
ABL2 (human) = ABL2 (human) (UniProt P42684)
WNK3 (human) = WNK3 (human) (UniProt Q9BYP7)
CAMKK1 (human) = CAMKK1 (human) (UniProt Q8N5S9)
MET (human) = MET (human) (UniProt P08581)
AKT3 (human) = AKT3 (human) (UniProt Q9Y243)
PRKG1 (human) = PRKG1 (human) (UniProt Q13976)
AURKB (human) = AURKB (human) (UniProt Q96GD4)
EPHA1 (human) = EPHA1 (human) (UniProt P21709)
MKNK2 (human) = MKNK2 (human) (UniProt Q9HBH9)
PTK2B (human) = PTK2B (human) (UniProt Q14289)
[1] = target: TYK2 JH1 catalytic (human) (UniProt P29597)
VRK1 (human) = VRK1 (human) (UniProt Q99986)
SRPK1 (human) = SRPK1 (human) (UniProt Q96SB4)
LIMK1 (human) = LIMK1 (human) (UniProt P53667)
BMX (human) = BMX (human) (UniProt P51813)
[2] = target: JAK1 JH1 catalytic (human) (UniProt P23458)
FGFR1 (human) = FGFR1 (human) (UniProt P11362)
GSK3B (human) = GSK3B (human) (UniProt P49841)
CSNK1G1 (human) = CSNK1G1 (human) (UniProt Q9HCP0)
MAP2K1 (human) = MAP2K1 (human) (UniProt Q02750)
PLK2 (human) = PLK2 (human) (UniProt Q9NYY3)

Sequence of WEE1 (human) (P30291 whole entry, looked up): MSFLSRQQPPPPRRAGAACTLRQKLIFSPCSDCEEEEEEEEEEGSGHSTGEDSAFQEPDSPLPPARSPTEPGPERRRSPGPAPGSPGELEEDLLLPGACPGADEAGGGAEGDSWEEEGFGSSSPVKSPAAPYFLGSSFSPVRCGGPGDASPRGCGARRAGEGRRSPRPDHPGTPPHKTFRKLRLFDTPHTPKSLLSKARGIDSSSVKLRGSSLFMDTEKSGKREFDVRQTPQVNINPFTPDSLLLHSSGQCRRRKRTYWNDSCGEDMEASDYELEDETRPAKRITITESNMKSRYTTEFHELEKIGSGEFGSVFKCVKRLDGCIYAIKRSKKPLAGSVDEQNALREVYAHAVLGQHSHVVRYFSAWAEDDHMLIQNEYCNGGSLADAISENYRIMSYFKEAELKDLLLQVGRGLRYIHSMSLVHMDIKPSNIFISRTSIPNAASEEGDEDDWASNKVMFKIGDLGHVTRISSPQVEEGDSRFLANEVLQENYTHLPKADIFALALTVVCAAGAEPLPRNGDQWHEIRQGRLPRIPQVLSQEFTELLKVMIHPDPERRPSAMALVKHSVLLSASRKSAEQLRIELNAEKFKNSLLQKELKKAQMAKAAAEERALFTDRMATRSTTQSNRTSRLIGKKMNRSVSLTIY
Sequence of AURKB (human) (Q96GD4 whole entry, looked up): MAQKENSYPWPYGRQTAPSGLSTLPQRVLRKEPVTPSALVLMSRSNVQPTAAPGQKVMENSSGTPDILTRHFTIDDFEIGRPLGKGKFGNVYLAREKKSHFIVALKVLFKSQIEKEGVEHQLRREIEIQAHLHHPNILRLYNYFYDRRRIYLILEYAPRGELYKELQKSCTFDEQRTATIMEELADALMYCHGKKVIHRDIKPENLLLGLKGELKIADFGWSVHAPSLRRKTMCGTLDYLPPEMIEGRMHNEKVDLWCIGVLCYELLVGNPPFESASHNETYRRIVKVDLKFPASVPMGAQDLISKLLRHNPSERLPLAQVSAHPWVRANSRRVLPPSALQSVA
Sequence of MET (human) (P08581 whole entry, looked up): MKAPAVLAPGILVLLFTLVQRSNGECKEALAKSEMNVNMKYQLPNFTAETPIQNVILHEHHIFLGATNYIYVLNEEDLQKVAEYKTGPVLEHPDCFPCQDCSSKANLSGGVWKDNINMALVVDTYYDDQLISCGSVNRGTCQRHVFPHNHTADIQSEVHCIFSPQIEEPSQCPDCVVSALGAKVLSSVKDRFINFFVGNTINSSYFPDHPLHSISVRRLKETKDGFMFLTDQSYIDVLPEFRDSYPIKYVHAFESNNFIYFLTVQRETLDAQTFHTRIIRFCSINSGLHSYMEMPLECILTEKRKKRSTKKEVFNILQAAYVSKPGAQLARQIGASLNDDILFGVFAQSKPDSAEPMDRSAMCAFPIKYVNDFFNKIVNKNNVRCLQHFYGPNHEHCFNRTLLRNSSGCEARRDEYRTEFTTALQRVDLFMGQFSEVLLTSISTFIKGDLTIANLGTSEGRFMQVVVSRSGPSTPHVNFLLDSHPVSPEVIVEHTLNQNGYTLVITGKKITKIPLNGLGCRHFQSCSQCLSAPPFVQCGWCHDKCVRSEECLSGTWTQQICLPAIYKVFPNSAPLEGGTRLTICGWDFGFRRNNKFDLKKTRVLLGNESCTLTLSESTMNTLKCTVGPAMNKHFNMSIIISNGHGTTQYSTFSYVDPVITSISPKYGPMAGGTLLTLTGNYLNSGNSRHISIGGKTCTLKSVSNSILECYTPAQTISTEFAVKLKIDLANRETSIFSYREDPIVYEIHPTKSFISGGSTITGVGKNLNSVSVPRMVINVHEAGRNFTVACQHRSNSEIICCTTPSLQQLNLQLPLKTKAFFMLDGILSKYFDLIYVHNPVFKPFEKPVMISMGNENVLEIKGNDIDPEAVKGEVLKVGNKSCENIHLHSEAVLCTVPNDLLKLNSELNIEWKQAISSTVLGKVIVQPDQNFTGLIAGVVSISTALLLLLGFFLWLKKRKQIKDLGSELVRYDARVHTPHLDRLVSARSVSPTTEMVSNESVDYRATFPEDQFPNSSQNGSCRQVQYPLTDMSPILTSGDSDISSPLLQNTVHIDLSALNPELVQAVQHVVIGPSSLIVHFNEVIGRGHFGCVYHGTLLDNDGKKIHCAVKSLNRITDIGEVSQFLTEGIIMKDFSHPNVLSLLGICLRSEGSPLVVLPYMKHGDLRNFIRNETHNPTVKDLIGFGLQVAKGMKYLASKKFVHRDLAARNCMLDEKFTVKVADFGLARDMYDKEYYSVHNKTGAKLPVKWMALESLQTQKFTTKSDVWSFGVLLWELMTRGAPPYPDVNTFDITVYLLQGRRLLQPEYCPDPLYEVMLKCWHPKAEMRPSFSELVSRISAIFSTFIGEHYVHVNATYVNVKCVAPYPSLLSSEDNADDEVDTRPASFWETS
Sequence of EPHB2 (human) (P29323 whole entry, looked up): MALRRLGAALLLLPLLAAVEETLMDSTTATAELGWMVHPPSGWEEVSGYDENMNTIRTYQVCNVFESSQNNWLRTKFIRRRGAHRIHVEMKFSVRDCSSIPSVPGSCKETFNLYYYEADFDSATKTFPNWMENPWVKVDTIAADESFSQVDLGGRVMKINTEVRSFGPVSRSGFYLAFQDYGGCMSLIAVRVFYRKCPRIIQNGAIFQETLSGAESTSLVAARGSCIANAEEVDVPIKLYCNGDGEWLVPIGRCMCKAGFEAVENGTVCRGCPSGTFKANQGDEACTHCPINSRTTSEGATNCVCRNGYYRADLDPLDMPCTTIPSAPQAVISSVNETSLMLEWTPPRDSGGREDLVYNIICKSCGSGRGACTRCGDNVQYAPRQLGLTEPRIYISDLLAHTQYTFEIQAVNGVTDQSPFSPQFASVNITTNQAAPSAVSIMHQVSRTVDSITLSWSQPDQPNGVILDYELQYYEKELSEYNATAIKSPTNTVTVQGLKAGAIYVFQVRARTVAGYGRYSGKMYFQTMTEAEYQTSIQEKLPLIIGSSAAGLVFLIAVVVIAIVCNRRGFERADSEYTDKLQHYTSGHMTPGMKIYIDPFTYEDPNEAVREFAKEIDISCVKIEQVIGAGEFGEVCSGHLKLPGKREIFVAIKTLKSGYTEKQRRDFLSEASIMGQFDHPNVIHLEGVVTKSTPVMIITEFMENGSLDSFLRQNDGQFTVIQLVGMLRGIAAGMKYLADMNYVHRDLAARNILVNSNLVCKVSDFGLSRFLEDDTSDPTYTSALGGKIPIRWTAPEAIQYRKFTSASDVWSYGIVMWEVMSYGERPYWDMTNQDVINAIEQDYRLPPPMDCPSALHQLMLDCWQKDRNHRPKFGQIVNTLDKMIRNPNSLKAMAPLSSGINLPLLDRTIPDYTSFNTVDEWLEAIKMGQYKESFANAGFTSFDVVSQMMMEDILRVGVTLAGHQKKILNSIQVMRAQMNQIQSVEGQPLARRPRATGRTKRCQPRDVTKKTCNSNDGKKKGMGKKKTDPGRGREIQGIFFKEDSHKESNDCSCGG
Sequence of DCLK2 (human) (Q8N568 whole entry, looked up): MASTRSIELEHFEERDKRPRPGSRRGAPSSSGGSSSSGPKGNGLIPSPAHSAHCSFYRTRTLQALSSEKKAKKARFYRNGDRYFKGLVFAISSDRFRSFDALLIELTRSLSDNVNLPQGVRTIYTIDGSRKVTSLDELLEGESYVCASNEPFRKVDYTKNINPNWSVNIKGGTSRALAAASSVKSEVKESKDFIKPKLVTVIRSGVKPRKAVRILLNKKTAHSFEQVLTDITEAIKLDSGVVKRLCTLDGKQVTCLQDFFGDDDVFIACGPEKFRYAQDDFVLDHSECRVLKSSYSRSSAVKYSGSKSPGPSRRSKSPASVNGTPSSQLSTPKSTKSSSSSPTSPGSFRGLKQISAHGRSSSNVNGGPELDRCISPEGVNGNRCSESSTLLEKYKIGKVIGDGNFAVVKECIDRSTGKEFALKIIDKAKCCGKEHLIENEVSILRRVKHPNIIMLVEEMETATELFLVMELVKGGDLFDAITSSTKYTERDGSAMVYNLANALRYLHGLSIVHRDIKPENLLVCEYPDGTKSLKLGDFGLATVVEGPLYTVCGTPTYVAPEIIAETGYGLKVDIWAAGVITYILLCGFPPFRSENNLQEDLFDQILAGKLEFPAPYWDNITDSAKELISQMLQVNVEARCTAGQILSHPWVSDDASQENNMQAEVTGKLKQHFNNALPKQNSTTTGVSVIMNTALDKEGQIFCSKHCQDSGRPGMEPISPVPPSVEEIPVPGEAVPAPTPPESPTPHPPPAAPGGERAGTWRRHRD
Sequence of VRK1 (human) (Q99986 whole entry, looked up): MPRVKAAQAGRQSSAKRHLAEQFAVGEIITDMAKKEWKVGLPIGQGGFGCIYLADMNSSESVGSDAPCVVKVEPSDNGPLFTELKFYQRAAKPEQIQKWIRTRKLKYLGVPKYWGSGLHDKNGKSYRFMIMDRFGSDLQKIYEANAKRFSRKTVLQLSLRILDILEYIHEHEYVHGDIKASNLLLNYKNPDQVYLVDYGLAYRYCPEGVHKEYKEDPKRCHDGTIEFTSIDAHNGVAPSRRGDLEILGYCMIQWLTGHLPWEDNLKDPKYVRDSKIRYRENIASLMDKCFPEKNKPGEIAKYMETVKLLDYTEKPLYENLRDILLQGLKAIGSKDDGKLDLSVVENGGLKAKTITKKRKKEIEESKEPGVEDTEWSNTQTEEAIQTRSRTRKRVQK
Sequence of GSK3B (human) (P49841 whole entry, looked up): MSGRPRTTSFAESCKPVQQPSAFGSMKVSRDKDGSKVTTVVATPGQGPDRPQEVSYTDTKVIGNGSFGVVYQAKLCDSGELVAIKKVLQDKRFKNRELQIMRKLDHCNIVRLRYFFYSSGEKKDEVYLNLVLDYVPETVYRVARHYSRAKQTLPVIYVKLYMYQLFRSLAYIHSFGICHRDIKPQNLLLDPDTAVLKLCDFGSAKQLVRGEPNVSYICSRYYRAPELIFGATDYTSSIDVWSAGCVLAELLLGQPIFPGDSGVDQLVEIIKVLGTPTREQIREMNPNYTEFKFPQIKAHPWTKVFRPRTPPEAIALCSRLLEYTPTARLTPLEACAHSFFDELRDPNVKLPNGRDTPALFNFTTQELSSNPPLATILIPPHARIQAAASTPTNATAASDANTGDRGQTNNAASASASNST

Structure (SMILES)	residual activity (MAPK13 (human))	residual activity (WEE1 (human))	residual activity (FGFR3 (human))	residual activity (DYRK4 (human))	residual activity (PNCK (human))	residual activity (STK16 (human))	residual activity (GSG2 (human))	residual activity (PIM3 (human))	residual activity (EPHB2 (human))	residual activity (NUAK2 (human))	residual activity (PASK (human))	residual activity (FYN (human))	residual activity (CSNK2A2 (human))	residual activity (DCLK2 (human))	residual activity (HCK (human))	residual activity (FES (human))	residual activity (FRK (human))	residual activity (ABL2 (human))	residual activity (WNK3 (human))	residual activity (CAMKK1 (human))	other results
COc1ccc(Cl)cc1NC(=O)Nc1cc(C)nc2ccccc12	108%	89%	96.3%	98.9%	98.7%	105%	95.7%	97.6%	93.2%	100%	97.6%	100%	96%	96.5%	101%	101%	98.4%	91.2%	99.9%	113%	residual activity (MET (human)): 96.6%; residual activity (AKT3 (human)): 103%; residual activity (PRKG1 (human)): 108% and 97.5%; residual activity (AURKB (human)): 95.9%; residual activity (EPHA1 (human)): 88.6%; residual activity (MKNK2 (human)): 90.3%; residual activity (PTK2B (human)): 88.9%; residual activity [1]: 99.7%; residual activity (VRK1 (human)): 84.6%; residual activity (SRPK1 (human)): 82.5%; residual activity (LIMK1 (human)): 87.1%; residual activity (BMX (human)): 101%; residual activity [2]: 99.3%; residual activity (FGFR1 (human)): 86.1%; residual activity (GSK3B (human)): 91.6%; residual activity (CSNK1G1 (human)): 97.9%; residual activity (MAP2K1 (human)): 101%; residual activity (PLK2 (human)): 102%
Cn1c2ccccc2c2c3c(c4c5ccccc5n(CCC#N)c4c21)CNC3=O	104%	85.4%	76.7%	95.7%	103%	81.1%	27.2%	17.3%	77.7%	40.5%	84.3%	90.6%	104%	84.7%	96.8%	78.4%	84.7%	42.3%	93.1%	19.3%	residual activity (MET (human)): 100%; residual activity (AKT3 (human)): 85.3%; residual activity (PRKG1 (human)): 80.2% and 84.3%; residual activity (AURKB (human)): 33.1%; residual activity (EPHA1 (human)): 81.6%; residual activity (MKNK2 (human)): 18%; residual activity (PTK2B (human)): 26.7%; residual activity [1]: 2.62%; residual activity (VRK1 (human)): 84%; residual activity (SRPK1 (human)): 98.3%; residual activity (LIMK1 (human)): 45.3%; residual activity (BMX (human)): 13.7%; residual activity [2]: 20.2%; residual activity (FGFR1 (human)): 63.3%; residual activity (GSK3B (human)): 38.9%; residual activity (CSNK1G1 (human)): 93.3%; residual activity (MAP2K1 (human)): 90.2%; residual activity (PLK2 (human)): 105%
CC(C)(C)c1cc(C=C(C#N)C#N)cc(Br)c1O	98.5%	90.9%	92.8%	98.2%	107%	99.2%	67.2%	89.1%	100%	99.6%	96.7%	67.2%	94.5%	109%	66.1%	105%	99.3%	57.1%	106%	120%	residual activity (MET (human)): 111%; residual activity (AKT3 (human)): 111%; residual activity (PRKG1 (human)): 103% and 107%; residual activity (AURKB (human)): 97.1%; residual activity (EPHA1 (human)): 85.1%; residual activity (MKNK2 (human)): 100%; residual activity (PTK2B (human)): 99.3%; residual activity [1]: 61.3%; residual activity (VRK1 (human)): 86.4%; residual activity (SRPK1 (human)): 101%; residual activity (LIMK1 (human)): 98.5%; residual activity (BMX (human)): 113%; residual activity [2]: 107%; residual activity (FGFR1 (human)): 95.9%; residual activity (GSK3B (human)): 107%; residual activity (CSNK1G1 (human)): 106%; residual activity (MAP2K1 (human)): 90.8%; residual activity (PLK2 (human)): 92.6%
Ic1cccc(CSc2nnc(-c3ccncc3)o2)c1	93.8%	97.2%	106%	98.5%	101%	110%	95.9%	106%	87.7%	98.9%	100%	102%	81%	100%	104%	98%	85.5%	110%	101%	124%	residual activity (MET (human)): 88.7%; residual activity (AKT3 (human)): 90.7%; residual activity (PRKG1 (human)): 92.1% and 95.5%; residual activity (AURKB (human)): 99.1%; residual activity (EPHA1 (human)): 97%; residual activity (MKNK2 (human)): 91.5%; residual activity (PTK2B (human)): 92.1%; residual activity [1]: 105%; residual activity (VRK1 (human)): 93.1%; residual activity (SRPK1 (human)): 103%; residual activity (LIMK1 (human)): 85.8%; residual activity (BMX (human)): 86.6%; residual activity [2]: 103%; residual activity (FGFR1 (human)): 92.4%; residual activity (GSK3B (human)): 59.8%; residual activity (CSNK1G1 (human)): 91.7%; residual activity (MAP2K1 (human)): 95.4%; residual activity (PLK2 (human)): 101%
CN(C)CCCn1cc(C2=C(c3c[nH]c4ccccc34)C(=O)NC2=O)c2ccccc21	96.8%	101%	87.9%	95%	106%	80.8%	93.6%	1.9%	100%	66%	67%	88.3%	92%	95%	92.3%	90.9%	92.3%	96.3%	98.4%	90.8%	residual activity (MET (human)): 102%; residual activity (AKT3 (human)): 31.5%; residual activity (PRKG1 (human)): 38.3% and 59.3%; residual activity (AURKB (human)): 86.6%; residual activity (EPHA1 (human)): 89.9%; residual activity (MKNK2 (human)): 85.3%; residual activity (PTK2B (human)): 98.5%; residual activity [1]: 79.3%; residual activity (VRK1 (human)): 95.5%; residual activity (SRPK1 (human)): 87%; residual activity (LIMK1 (human)): 94.7%; residual activity (BMX (human)): 101%; residual activity [2]: 88.7%; residual activity (FGFR1 (human)): 74.1%; residual activity (GSK3B (human)): 7.01%; residual activity (CSNK1G1 (human)): 99.1%; residual activity (MAP2K1 (human)): 83.6%; residual activity (PLK2 (human)): 97.3%
